Results on twelve compounds are retold here after patent US5432192A, “Tricyclic compounds and method for treating allergic diseases” (Hokuriku Seiyaku Co., Ltd., priority 1991, dated 1995).

Usually inhibition stands for the change of the read-out against control, counted positive when it falls. The Kb is the affinity of an antagonist, worked out from how it opposes an agonist.

The test system of series [1] is PCA reaction in passively sensitized male Wistar rats. Description: Anti-allergic effect (Inhibitory effect on PCA reaction). The following applies: Rattus norvegicus, po, 1 h, 1 mg/kg orally, antigen challenge after one hour, read-out: Inhibition rate (%) of PCA reaction. Type of series: in vivo, rat (male Wistar). The method, then: 0.1 ml of anti-dinitrophenylated ascaris extract (DNP-As) rat IgE serum was injected intracutaneously to the back of male Wistar rats (6 weeks of age). After 48 hours, a solution of 1% Evans blue in physiological saline containing 1 mg of an antigen (DNP-As) was administered from caudal vein. After 30 minutes, the animals were exsanguinated and dyes in blue spots were extracted with 1N KOH, and then the amounts of the dyes were measured by absorbance at 620 nm. After the passively sensitized rats described above were fasted for 16 to 18 hours, 1 mg/kg of each test compound was administered orally to the rats, and then the rats were challenged with antigen after one hour. The amounts of dyes in the test animals were compared with those of the control to obtain the inhibition rate (%) of PCA reaction.

Series [2] concerns the target T1, Acetylcholine dose-response in isolated ileum from male Hartley guinea-pigs (Cavia porcellus, UniProt H0W1Z3).
T1 construct: The ileum was isolated from male Hartley guinea-pigs; from tissue; host or cells: isolated ileum of male Hartley guinea-pigs
Description: Anti-acetylcholinergic effect, isolated guinea-pig ileum (KB by Furchgott method). Further details: species or system guinea-pig (male Hartley). The following applies: dissociation constant KB (M) of antagonist vs acetylcholine; test drug applied 30 minutes before; 28° C.; read-out: -Log KB (anti-acetylcholinergic effect) (converted). As for the experimental part: (§1) The ileum was isolated from male Hartley guinea-pigs (5 to 8 weeks of age). The preparation was suspended in a bath containing Locke-Ringer nutritional solution (NaCl: 154 mM, KCl: 5.6 mM, CaCl2.H2 O: 2.2 mM, MgCl2. 6H2 O: 2.1 mM, NaHCO3 : 5.9 mM, glucose: 2.8 mM) bubbled with 95% O2 +5% CO2 mixed gas at 28° C., and then 0.5 g weight was loaded and tention through isotonic transducer was recorded using a recorder. Acetylcholine was cumulatively applied 3 times at intervals of 40 minutes, and the dose-response curve of the third experiment, for which a test drug was applied 30 minutes before the experiment, was compared with the result of the second experiment as a reference. Dissociation constants KB (M) of antagonists were calculated according to the method of Furchgott. From the results shown in Table 3, it is apparent that the compounds of the present invention have almost no anti-acetylcholinergic activities.

For series [3], the target named is T2, Histamine dose-response in isolated ileum from male Hartley guinea-pigs (Cavia porcellus, UniProt P31389).
T2 construct: The ileum was isolated from male Hartley guinea-pigs; from tissue; host or cells: isolated ileum of male Hartley guinea-pigs
Description: Anti-histaminic effect, isolated guinea-pig ileum (KB by Furchgott method). Also noted: species or system guinea-pig (male Hartley). As to conditions: dissociation constant KB (M) of antagonist vs histamine; test drug applied 30 minutes before; 28° C.; read-out: -Log KB (anti-histaminic effect) (converted). The method, then:
as §1, with “CaCl2 .2H2” for “CaCl2.H2”, “MgCl2.6H2” for “MgCl2. 6H2”, “Histamine” for “Acetylcholine”, “1,” for “3,”, “excellent anti-histaminic” for “almost no anti-acetylcholinergic”

The conditions of series [4]: known adverse reactions, background art; cited from earlier work.

T1 sequence (H0W1Z3 1-590): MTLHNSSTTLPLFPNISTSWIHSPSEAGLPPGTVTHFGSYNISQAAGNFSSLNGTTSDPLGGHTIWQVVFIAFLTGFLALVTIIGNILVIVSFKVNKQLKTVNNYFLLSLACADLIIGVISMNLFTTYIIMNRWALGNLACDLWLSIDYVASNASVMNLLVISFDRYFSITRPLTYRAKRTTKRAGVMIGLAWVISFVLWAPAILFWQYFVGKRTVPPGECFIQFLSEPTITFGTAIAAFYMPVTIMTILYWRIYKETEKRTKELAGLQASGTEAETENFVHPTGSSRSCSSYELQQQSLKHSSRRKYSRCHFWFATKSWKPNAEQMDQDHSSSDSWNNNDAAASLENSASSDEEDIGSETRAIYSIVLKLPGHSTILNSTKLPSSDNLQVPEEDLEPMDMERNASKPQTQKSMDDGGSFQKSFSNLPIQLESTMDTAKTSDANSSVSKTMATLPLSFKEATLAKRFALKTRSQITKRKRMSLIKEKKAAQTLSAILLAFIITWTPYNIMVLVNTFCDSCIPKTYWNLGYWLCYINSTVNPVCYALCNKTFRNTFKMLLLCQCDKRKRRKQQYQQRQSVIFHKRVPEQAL
T2 sequence (P31389 whole entry): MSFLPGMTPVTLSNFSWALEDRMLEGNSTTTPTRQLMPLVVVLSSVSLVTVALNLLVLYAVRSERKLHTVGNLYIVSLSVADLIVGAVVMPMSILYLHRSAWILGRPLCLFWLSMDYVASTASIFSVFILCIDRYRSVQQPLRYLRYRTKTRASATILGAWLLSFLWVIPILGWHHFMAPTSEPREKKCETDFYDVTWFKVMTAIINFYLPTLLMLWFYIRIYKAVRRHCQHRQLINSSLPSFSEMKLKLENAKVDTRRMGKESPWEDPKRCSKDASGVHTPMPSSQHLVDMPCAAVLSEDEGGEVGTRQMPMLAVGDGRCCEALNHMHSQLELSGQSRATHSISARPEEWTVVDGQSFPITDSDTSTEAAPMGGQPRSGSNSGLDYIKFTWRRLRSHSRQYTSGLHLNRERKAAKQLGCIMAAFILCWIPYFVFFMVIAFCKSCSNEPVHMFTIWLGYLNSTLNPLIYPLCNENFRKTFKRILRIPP

As for `CN(CCC=C1c2ccccc2C=Cc2ccccc21)CCC(=O)O` [Example 14, 3-[N-[3-(5H-Dibenzo[a,d]cyclohepten-5-ylidene)propyl]-N-methylamino]propionic Acid], the inhibition at 1 mg/kg in series [1] stood at 72%. The Kb in series [2] is 1.51e-05 M; in series [3] it was 6.92e-09 M.

Take `CN(CCC=C1c2ccccc2C=Cc2ccccc21)CCCC(=O)O` [Example 15, 4-[N-[3-(5H-Dibenzo[a,d]cyclohepten-5-ylidene)propyl]-N-methylamino]butyricAcid]: the Kb in series [2] is 2.57e-06 M; in series [3], 4.27e-09 M.

In the case of `CN(CCC=C1c2ccccc2C=Cc2ccccc21)CC(=O)O` [Example 16, [N-[3-(5H-Dibenzo[a,d]cyclohepten-5-ylidene)propyl]-N-methylamino]acetic Acid], the values for the Kb in series [2] and in series [3] were 1.26e-05 M and 3.16e-08 M, respectively.

As for `CN(CCC=C1c2ccccc2C=Cc2ccccc21)CCCCC(=O)O` [Example 17, 5-[N-[3-(5H-Dibenzo[a,d]cyclohepten-5-ylidene)propyl]-N-methylamino]valericAcid], the inhibition at 1 mg/kg in series [1] was 72%. The Kb is 9.12e-07 M in series [2] and 6.17e-09 M in series [3].

Take `CN(CCC=C1c2ccccc2C=Cc2ccccc21)CCCCCC(=O)O` [Example 18, 6-[N-[3-(5H-Dibenzo[a,d]cyclohepten-5-ylidene)propyl]-N-methylamino]hexanoic Acid]: in series [1], the inhibition at 1 mg/kg was 50%. Further, the Kb in series [2] is 5.5e-07 M; in series [3] it was 1.2e-08 M.

With `CN(CCC=C1c2ccccc2COc2ccccc21)CC(=O)O` [Example 19, [N-[3-(Dibenz[b,e]oxepin-11(6H)-ylidene)propyl]-N-methylamino]acetic Acid], the Kb in series [2] is 4.9e-05 M; in series [3] it was 1.55e-08 M.

On to `CN(CCC=C1c2ccccc2COc2ccccc21)CCC(=O)O` [Example 20, 3-[N-[3-(Dibenz[b,e]oxepin-11(6H)-ylidene)propyl]-N-methylamino]propionic Acid], for which the inhibition at 1 mg/kg in series [1] was found to be 69%. The values for the Kb in series [2] and in series [3] were 7.08e-06 M and 3.09e-09 M, respectively.

With `CN(CCC=C1c2ccccc2COc2ccccc21)CCCC(=O)O` [Example 21, 4-[N-[3-(Dibenz[b,e]oxepin-11(6H)-ylidene)propyl]-N-methylamino]butyric Acid], the Kb in series [2] is 7.24e-06 M; in series [3], 3.47e-09 M.

For the compound `CN(CCC=C1c2ccccc2COc2ccccc21)CCCCC(=O)O` [Example 22, 5-[N-[3-(Dibenz[b,e]oxepin-11(6H)-ylidene)propyl]-N-methylamino]valeric Acid], the inhibition at 1 mg/kg in series [1] came out at 62%. Besides, the results for the Kb in series [2] and in series [3] were 1e-05 M and 4.37e-09 M, respectively.

Consider `CN(CCC=C1c2ccccc2COc2ccccc21)CCCCCC(=O)O` [Example 23, 6-[N-[3-(Dibenz[b,e]oxepin-11(6H)-ylidene)propyl]-N-methylamino]hexanoic Acid], for which the Kb in series [2] was 3.16e-06 M; in series [3], 7.76e-09 M.

Regarding `CN(C)CCC=C1c2ccccc2C=Cc2ccccc21` [cyclobenzaprine, Cyclobenzaprine, reference compound], the inhibition at 1 mg/kg in series [1] worked out at 14%. The Kb in series [2] was 7.59e-09 M. For the same compound, in series [4], the adverse reactions result was “sleepiness, dizziness, fatigue, thirst, nausea, constipation, and dyspepsia”.

Consider `CN(C)CCC=C1c2ccccc2COc2ccccc21` [doxepin, Doxepin, reference compound], for which, in series [1], the inhibition at 1 mg/kg was 21%. For the same compound, the antagonist equilibrium constant (Kb) in series [2] was 5.89e-08 M. Moreover, in series [4], the adverse reactions entry is “sleepiness, thirst, and constipations”.
